The results in this text go back to patent US20230158151A1 (NURIX THERAPEUTICS, INC., priority 2021, published 2023).

For the assay, the target named is T1, ITK (Homo sapiens, UniProt Q08881).
T1 construct: Compounds provided herein were assayed in vitro with ITK HiBit cell lines; endogenous in cells; host or cells: Molt4 (ATCC CRL-1552 [sic]), monoclonal clone 1C10
T1 sequence (Q08881 1-620): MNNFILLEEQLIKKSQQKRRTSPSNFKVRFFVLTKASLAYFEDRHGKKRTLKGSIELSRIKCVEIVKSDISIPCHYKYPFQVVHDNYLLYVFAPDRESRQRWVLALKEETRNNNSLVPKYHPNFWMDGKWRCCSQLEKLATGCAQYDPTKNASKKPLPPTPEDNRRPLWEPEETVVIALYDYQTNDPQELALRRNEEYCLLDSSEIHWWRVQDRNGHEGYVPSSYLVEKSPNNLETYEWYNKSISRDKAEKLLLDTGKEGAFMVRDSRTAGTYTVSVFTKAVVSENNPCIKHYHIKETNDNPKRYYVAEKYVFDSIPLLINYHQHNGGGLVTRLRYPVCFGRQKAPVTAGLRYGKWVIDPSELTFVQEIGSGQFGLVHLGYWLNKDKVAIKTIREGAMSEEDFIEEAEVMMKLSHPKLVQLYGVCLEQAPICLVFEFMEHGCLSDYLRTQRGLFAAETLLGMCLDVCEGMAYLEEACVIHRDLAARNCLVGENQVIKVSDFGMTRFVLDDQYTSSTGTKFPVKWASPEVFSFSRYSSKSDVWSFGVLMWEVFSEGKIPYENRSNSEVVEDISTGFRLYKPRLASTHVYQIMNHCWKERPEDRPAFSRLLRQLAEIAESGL
Nature of the assay: ITK Degradation HiBiT Assay. The class given is cell-based. The method, then:
Compounds provided herein were assayed in vitro with ITK HiBit cell lines. Compound dilution series (11-point, 5 fold dilutions in DMSO, columns 2-12 with replicate in rows A/B, C/D, E/F, G, H at 2000× the final required concentrations were prepared in 96 well plate (Falcon, cat. no. 353077). Column 1, rows A-H were control DMSO. The 2000× solutions ranged from 2 mM to 1.024 nM (final assay concentration range 1 μM to […]). The 2000× solutions were added to cells in […], for a final DMSO concentration of 0.5% and final assay compound concentration of 1×. For the cells, C-terminal HiBiT-tagged Molt4 cells (ATCC CRL-1552, monoclonal cell line clone 1C10) were plated at 1×10^6 cells/mL, 100 μL/well ([…]) in complete RPMI (10% FBS, 1% L-glutamine). The cells were incubated with compound 32 and compound 30 for 4 hrs at 32° C./6% CO2.
Following incubation, 100 μL of complete Nano-Glo HiBiT Lytic Detection Reagent (Nano-Glo HiBiT Lytic Buffer with 1:50 Nano-Glo HiBiT Lytic Substrate and 1:100 LgBiT Protein; Promega cat. no. N3O40) was added. Cells were further incubated for 10 min at room temperature (RT). Luminescence units (LU) were read on an EnVision plate reader (Perkin Elmer, 0.1 sec per well). Percent ITK remaining per sample was calculated as follows: […]
Using Graphpad Prism, % ITK remaining values were plotted as a function of compound concentration. To determine DC50 and Dmax values, resulting curves were fit to the Prism curve-fitting equation “log(inhibitor) vs response−Variable slope (four parameters)” (reported best fit value IC50 used as DC50). ITK was measured with antibody-based MSD (Meso-Scale Discovery) assays shown below.

Setting [1] is: C-terminal HiBiT-tagged Molt4 cells, 4 hrs incubation.
Where [2] appears, read: MOLT-4, C-terminal HiBiT-tagged Molt4 cells, 4 hrs incubation, read-out: HiBiT DMax (%).

Read-outs that look alike come from different tables or passages of the source.

Consider `CC1(C)CCc2c(-c3cc4ccc(N5CCC6(CCN(CC7CCN(c8ccc(C9CCC(=O)NC9=O)cn8)CC7)CC6)C5=O)cc4[nH]3)n[nH]c2C1` (centres unmarked) [Compound 24, 3-(6-(4-((2-(2-(6,6-dimethyl-4,5,6,7-tetrahydro-1H-indazol-3-yl)-1H-indol-6-yl)-1-oxo-2,8-diazaspiro[4.5]decan-8-yl)methyl)piperidin-1-yl)pyridin-3-yl)piperidine-2,6-dione], for which, under setting [1], half-maximal degradation (DC50) was put at 0.6 nM. Under setting [2], the Dmax amounted to 92%.
For `CC1(C)CCc2c(-c3cc4ccc(C(=O)N5CCC(CN6CCN(c7ccc(C8CCC(=O)NC8=O)nc7)CC6)CC5)cc4[nH]3)n[nH]c2C1` (centres unmarked) [Compound 35, 3-(5-(4-((1-(2-(6,6-dimethyl-4,5,6,7-tetrahydro-1H-indazol-3-yl)-1H-indole-6-carbonyl)piperidin-4-yl)methyl)piperazin-1-yl)pyridin-2-yl)piperidine-2,6-dione], in that order: below 0.01 nM and 86%.
As to `CC1(C)CCc2c(-c3cc4ccc(C(=O)N5CCN(CC6CCN(c7ccc(C8CCC(=O)NC8=O)cn7)CC6)CC5)cc4[nH]3)n[nH]c2C1` (centres unmarked) [Compound 26, 3-(6-(4-((4-(2-(6,6-dimethyl-4,5,6,7-tetrahydro-1H-indazol-3-yl)-1H-indole-6-carbonyl)piperazin-1-yl)methyl)piperidin-1-yl)pyridin-3-yl)piperidine-2,6-dione], the Dmax under setting [2] was found to be 87%.
Still for that read-out and setting: the result for `C[C@@H](C(=O)N(C)c1ccc2cc(-c3n[nH]c4c3CCC(C)(C)C4)[nH]c2c1)N1CCN(CC2CCN(c3ccc(N4CCC(=O)NC4=O)cn3)CC2)CC1` [Compound 31, (S)—N-(2-(6,6-dimethyl-4,5,6,7-tetrahydro-1H-indazol-3-yl)-1H-indol-6-yl)-2-(4-((1-(5-(2,4-dioxotetrahydropyrimidin-1(2H)-yl)pyridin-2-yl)piperidin-4-yl)methyl)piperazin-1-yl)-N-methylpropanamide] reads 84%.
`CC1(C)CCc2c(-c3cc4ccc(C(=O)N5CCC(CN6CCN(c7ccc(C8CCC(=O)NC8=O)cc7)CC6)CC5)cc4[nH]3)n[nH]c2C1` (centres unmarked) [Compound 37, 3-(4-(4-((1-(2-(6,6-dimethyl-4,5,6,7-tetrahydro-1H-indazol-3-yl)-1H-indole-6-carbonyl)piperidin-4-yl)methyl)piperazin-1-yl)phenyl)piperidine-2,6-dione] yielded a DC50 under setting [1] of 2.6 nM. For the same compound, the Dmax under setting [2] was 79%.
Take `CN(C(=O)CCC1CCN(c2ccc(C3CCC(=O)NC3=O)cn2)CC1)c1ccc2cc(-c3n[nH]c4c3C[C@@H]3C(F)(F)[C@]3(C)C4)[nH]c2c1` (stereo partly drawn) [Compound 4, N-(2-((4aS,5aR)-5,5-difluoro-5a-methyl-1,4,4a,5,5a,6-hexahydrocyclopropa[f]indazol-3-yl)-1H-indol-6-yl)-3-(1-(5-(2,6-dioxopiperidin-3-yl)pyridin-2-yl)piperidin-4-yl)-N-methylpropanamide]: the Dmax under setting [2] was 82%.
On the same count and under the same terms, next, `C[C@@]12Cc3[nH]nc(C(=O)Nc4cnn(CC5CN(C(=O)C6CN(c7ccc(C8CCC(=O)NC8=O)cn7)C6)C5)c4)c3C[C@@H]1C2(F)F` (stereo partly drawn) [Compound 23, (4aS,5aR)—N-(1-((1-(1-(5-(2,6-dioxopiperidin-3-yl)pyridin-2-yl)azetidine-3-carbonyl)azetidin-3-yl)methyl)-1H-pyrazol-4-yl)-5,5-difluoro-5a-methyl-1,4,4a,5,5a,6-hexahydrocyclopropa[f]indazole-3-carboxamide]: 85%.
On to `C[C@@H](C(=O)N(C)c1ccc2cc(-c3n[nH]c4c3CCC(C)(C)C4)[nH]c2c1)N1CCN(CC2CCN(c3ccc(C4CCC(=O)NC4=O)cn3)CC2)CC1` (stereo partly drawn) [Compound 32, (2S)—N-(2-(6,6-dimethyl-4,5,6,7-tetrahydro-1H-indazol-3-yl)-1H-indol-6-yl)-2-(4-((1-(5-(2,6-dioxopiperidin-3-yl)pyridin-2-yl)piperidin-4-yl)methyl)piperazin-1-yl)-N-methylpropanamide], for which the Dmax (ITK degradation in HiBiT cell line, FIG. 1, read-out: Dmax values (FIG. 1)) was 90 to 100% and the Dmax under setting [2] amounted to 89%.
As for `C[C@@H](C(=O)N(C)c1ccc2cc(-c3n[nH]c4c3C[C@@H]3C(F)(F)[C@]3(C)C4)[nH]c2c1)N1CCN(CC2CCN(c3ccc(N4CCC(=O)NC4=O)cn3)CC2)CC1` [Compound 29, (S)—N-(2-((4aS,5aR)-5,5-difluoro-5a-methyl-1,4,4a,5,5a,6-hexahydrocyclopropa[f]indazol-3-yl)-1H-indol-6-yl)-2-(4-((1-(5-(2,4-dioxotetrahydropyrimidin-1(2H)-yl)pyridin-2-yl)piperidin-4-yl)methyl)piperazin-1-yl)-N-methylpropanamide], the Dmax under setting [2] was 76%.
Still for that read-out and setting: next, `C[C@@]12Cc3[nH]nc(-c4cc5ccc(N6CCC7(CCN(CC8CCN(c9ccc(C%10CCC(=O)NC%10=O)cn9)CC8)CC7)C6=O)cc5[nH]4)c3C[C@@H]1C2(F)F` (stereo partly drawn) [Compound 28, 3-(6-(4-((2-(2-((4aS,5aR)-5,5-difluoro-5a-methyl-1,4,4a,5,5a,6-hexahydrocyclopropa[f]indazol-3-yl)-1H-indol-6-yl)-1-oxo-2,8-diazaspiro[4.5]decan-8-yl)methyl)piperidin-1-yl)pyridin-3-yl)piperidine-2,6-dione]: 91%; `CN(C(=O)CC1CCN(CC2CCN(c3ccc(C4CCC(=O)NC4=O)cn3)CC2)CC1)c1ccc2cc(-c3n[nH]c4c3C[C@@H]3C(F)(F)[C@]3(C)C4)[nH]c2c1` (stereo partly drawn) [Compound 6, N-(2-((4aS,5aR)-5,5-difluoro-5a-methyl-1,4,4a,5,5a,6-hexahydrocyclopropa[f]indazol-3-yl)-1H-indol-6-yl)-2-(1-((1-(5-(2,6-dioxopiperidin-3-yl)pyridin-2-yl)piperidin-4-yl)methyl)piperidin-4-yl)-N-methylacetamide]: 85%.
Compound `CC1(C)CCc2c(-c3cc4ccc(C(=O)N5CCN(CC6CCN(c7ccc(C8CCC(=O)NC8=O)cc7)CC6)CC5)cc4[nH]3)n[nH]c2C1` (centres unmarked) [Compound 38, 3-(4-(4-((4-(2-(6,6-dimethyl-4,5,6,7-tetrahydro-1H-indazol-3-yl)-1H-indole-6-carbonyl)piperazin-1-yl)methyl)piperidin-1-yl)phenyl)piperidine-2,6-dione] gave a DC50 under setting [1] of 1.5 nM. Under setting [2], the Dmax is 74%.
In the case of `C[C@@]12Cc3[nH]nc(C(=O)Nc4cnn(CC5CN(C(=O)C6CCN(c7ccc(C8CCC(=O)NC8=O)cn7)CC6)C5)c4)c3C[C@@H]1C2(F)F` (stereo partly drawn) [Compound 22, (4aS,5aR)—N-(1-((1-(1-(5-(2,6-dioxopiperidin-3-yl)pyridin-2-yl)piperidine-4-carbonyl)azetidin-3-yl)methyl)-1H-pyrazol-4-yl)-5,5-difluoro-5a-methyl-1,4,4a,5,5a,6-hexahydrocyclopropa[f]indazole-3-carboxamide], the Dmax under setting [2] was determined as 90%.
`CC1(C)CCc2c(-c3cc4ccc(C(=O)N5CCC(CN6CCC(c7ccc(C8CCC(=O)NC8=O)cc7)CC6)CC5)cc4[nH]3)n[nH]c2C1` (centres unmarked) [Compound 39, 3-(4-(1-((1-(2-(6,6-dimethyl-4,5,6,7-tetrahydro-1H-indazol-3-yl)-1H-indole-6-carbonyl)piperidin-4-yl)methyl)piperidin-4-yl)phenyl)piperidine-2,6-dione]: the DC50 under setting [1] was found to be 0.09 nM. In addition, the Dmax under setting [2] was found to be 82%.
